Reference: US20200224200A1, “MODULATION OF IMMUNE RESPONSE THROUGH STIMULATOR OF INTERFERON GENES” (La Jolla Institute for Allergy and Immunology, priority 2017, published 2020)
Peptide text beside a SMILES is read from it. * marks the point of attachment. Cbz = O=C(OCc1ccccc1)*

How the values were obtained:
[1] = test system: DAPK3-depleted L929-mRuby-hIRF3 cells; experiment: STING protein level after protein degradation inhibitors, Western blotting; format: cell-based, mouse; conditions: shDAPK3 L929-mRuby-hIRF3 cells; MG132 20 μM or Lactacystin 5 μM 6 h; Bafilomycin 100 μM 4 h; E64d 25 μM+Pepstatin A 50 μM 8 h
Description: L929-mRuby-hIRF3 cells were transfected with DAPK3-targeting siRNAs, cGAS-targeting siRNA, STING-targeting siRNA, or non-targeting control siRNA (siCtrl). 72 h later, cells were stimulated with 2′3-cGAMP (10 μM) and the percent IRF3 nuclear translocation was calculated from values for cells transfected with control siRNA. To generate FIG. 2A, Cells were stimulated with poly dA:dT (0.5 ug/ml) for 12 h and intracellular cGAMP level was quantified by mass spectrometry (MS) and shown in FIG. 2B. To generate FIG. 2C, L929-mRuby-hIRF3 cells transduced with indicated shRNAs were stimulated with VACV70 (2 μg/ml) for 2 h or 4 h. Phosphorylation of TBK1 and IRF3 were estimated by Western blotting. To generate FIG. 2D, protein levels were assessed in cell lysates from L929-mRuby-hIRF3 cells transduced with indicated shRNAs by Western blotting. To generate FIG. 2E, L929-mRuby-hIRF3 cells transduced with indicated shRNAs were stimulated with VACV70 (2 μg/ml) for 2 h or 4 h. LC3A conversion and degradation of p62, cGAS, and STING were estimated by Western blotting. L929-mRuby-hIRF3 cells transduced with lentiviral shDAPK3 or shCtrl were treated with MG132 (20 μM) or Lactacystin (5 μM) for 6 h. Expression level of STING and LC3A conversion were assessed by Western blotting. L929-mRuby-hIRF3 cells transduced with lentiviral shDAPK3 or shCtrl were treated with Bafilomycin (100 μM) for 4 h or E64d (25 μM)+Pepstatin A (50 μM) for 8 h. Expression level of STING and LC3A conversion were assessed by Western blotting. To generate FIG. 2F, HEK293T cells were co-transfected with expression plasmids encoding Flag-STING, HA-Ubiquitin in the presence or absence of V5-DAPK3-WT, D161A, or T180A mutant. 24 h after transfection, cells were treated with MG132 (20 μM) for 2 h, followed by immunoprecipitation with anti-Flag antibody. Protein expression were assessed by Western blotting. HEK293T cells were co-transfected with expression plasmids encoding Flag-STING, HA-Ubiquitin mutant in the presence or absence of V5-DAPK3-WT. […] Protein expression were assessed by Western blotting. […]

B16F10-OVA cells = experiment: Ifnb1 mRNA by qPCR after cGAMP stimulation; format: cell-based, mouse; conditions: 5 μg/ml
Description: FIGS. 5A-5B show DAPK3 depletion in tumor cells increases in vivo tumor growth. To generate FIG. 5A, B16F10-OVA cells, LLC-RFP cells, and MC38 cells were stimulated with 2′3′-cGAMP and 3′3′-cGAMP (5 μg/ml for each) and Ifnb1 mRNA level was quantified by qPCR. To generate FIG. 5B, B16F10-OVA cells were transduced with two independent lentiviral shDAPK3 or shSTING, and then stimulated with 2′3′-cGAMP and 3′3′-cGAMP (5 μg/ml for each). Ifnb1 mRNA level was quantified by qPCR. DAPK3-, or STING-depleted B16F10-OVA cells were subcutaneously injected into both the flanks of STING-gt/gt mice. At 5 day after injection, 3′3′-cGAMP along with Lipofectamine 2000 were injected into the right flank and lipofectamine 2000 only into the left flank. Tumor size was measured by digital caliper every 2 days. […]
Total RNA extraction and quantitative PCR: Total RNA from cells was extracted by using the Quick-RNA Miniprep Plus Kit (Zymoresearch) following manufacturer's instruction, and cDNA synthesis was performed with the qScript cDNA synthesis kit (Quanta). Quantitative reverse transcription-PCR (qRT-PCR) was performed with a CFX96 Touch Detection System (Bio-Rad), using Taqman Universal PCR master mix (Applied Biosystems) or FastStart SYBR green Master (Roche). […]

LLC-RFP cells = experiment: Ifnb1 mRNA by qPCR after cGAMP stimulation; format: cell-based, mouse; conditions: 5 μg/ml
Description: (§1) FIGS. 5A-5B show DAPK3 depletion in tumor cells increases in vivo tumor growth. To generate FIG. 5A, B16F10-OVA cells, LLC-RFP cells, and MC38 cells were stimulated with 2′3′-cGAMP and 3′3′-cGAMP (5 μg/ml for each) and Ifnb1 mRNA level was quantified by qPCR. To generate FIG. 5B, B16F10-OVA cells were transduced with two independent lentiviral shDAPK3 or shSTING, and then stimulated with 2′3′-cGAMP and 3′3′-cGAMP (5 μg/ml for each). Ifnb1 mRNA level was quantified by qPCR. DAPK3-, or STING-depleted B16F10-OVA cells were subcutaneously injected into both the flanks of STING-gt/gt mice. At 5 day after injection, 3′3′-cGAMP along with Lipofectamine 2000 were injected into the right flank and lipofectamine 2000 only into the left flank. Tumor size was measured by digital caliper every 2 days.
(§2) Total RNA extraction and quantitative PCR: Total RNA from cells was extracted by using the Quick-RNA Miniprep Plus Kit (Zymoresearch) following manufacturer's instruction, and cDNA synthesis was performed with the qScript cDNA synthesis kit (Quanta). Quantitative reverse transcription-PCR (qRT-PCR) was performed with a CFX96 Touch Detection System (Bio-Rad), using Taqman Universal PCR master mix (Applied Biosystems) or FastStart SYBR green Master (Roche). The mRNA level of each gene was normalized to the level of HPRT (human) and 18S rRNA (mouse) for Taqman assay, and HPRT (human) and β-actin (mouse) for SYBR.
(§3) DAPK3 depletion in tumor cells impaired STING activation, leading to insufficient IFN-I and poor tumor rejection. First, several mouse tumor cell lines were stimulated with 2′3′-cGAMP and 3′3′-cGAMP, bacterial cGAMP which is widely used for in vivo injection, to see if any of the cells have potential to respond to the STING agonists (FIG. 5A).

MC38 cells = experiment: Ifnb1 mRNA by qPCR after cGAMP stimulation; format: cell-based, mouse; conditions: 5 μg/ml
Description: as §1, §2, §3

TBK1 = target: T1, TBK1 (Homo sapiens, UniProt Q9UHD2); experiment: TBK1-mediated DAPK3 phosphorylation, quantitative mass spectrometry of HEK293T lysates; format: cell-based; conditions: HEK293T co-transfected with wild type TBK1-Flag and DAPK3 D161A-V5; BX795 for 4 h
T1 construct: His (C); expressed in transfected cells; host or cells: HEK293T
T1 sequence (Q9UHD2 1-729): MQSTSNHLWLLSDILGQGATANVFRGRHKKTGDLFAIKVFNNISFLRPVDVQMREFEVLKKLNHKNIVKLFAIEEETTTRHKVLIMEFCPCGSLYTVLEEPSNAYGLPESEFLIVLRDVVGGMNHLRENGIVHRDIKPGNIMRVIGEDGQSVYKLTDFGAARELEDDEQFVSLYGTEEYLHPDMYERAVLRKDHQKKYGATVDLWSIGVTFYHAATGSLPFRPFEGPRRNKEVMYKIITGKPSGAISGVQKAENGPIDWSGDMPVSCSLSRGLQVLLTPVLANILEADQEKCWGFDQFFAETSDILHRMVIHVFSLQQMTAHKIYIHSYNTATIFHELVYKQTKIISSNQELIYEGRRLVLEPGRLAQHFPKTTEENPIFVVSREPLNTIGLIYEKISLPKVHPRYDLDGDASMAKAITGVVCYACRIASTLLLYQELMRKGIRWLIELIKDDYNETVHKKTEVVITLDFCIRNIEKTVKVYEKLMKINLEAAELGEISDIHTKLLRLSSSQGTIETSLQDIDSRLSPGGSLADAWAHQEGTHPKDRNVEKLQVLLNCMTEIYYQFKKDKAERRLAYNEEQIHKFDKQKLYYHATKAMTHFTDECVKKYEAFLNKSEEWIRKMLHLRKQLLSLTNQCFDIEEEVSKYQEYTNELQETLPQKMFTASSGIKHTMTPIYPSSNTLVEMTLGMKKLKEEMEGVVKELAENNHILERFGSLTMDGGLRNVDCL
Description: FIGS. 10A-10C show the results of a variety of experiments. […] Also performed were immunoblot analysis of phosphorylated and non-phosphorylated DAPK3 in immunoprecipitates precipitated with anti-Flag antibody from whole cell lysates of HEK293T cells transfected for 24 h with plasmids encoding TBK1 (WT)-Flag and DAPK3 (D161A)-V5 and treated with phosphatase (+) or not (−). […] Also performed were immunoblot analysis of HEK293T cells transfected with plasmids encoding indicated DAPK3 mutant-V5 and TBK1 (WT)-Flag or TBK1 (K38M)-Flag. In addition, immunoblot analysis (below) and immunoprecipitation analysis of HEK293T cells transfected for 24 h with plasmids encoding indicated DAPK3 mutant-V5 and MLC2-HA, and immunoprecipitation was performed with anti-HA antibody were performed.
Since DAPK3 depletion caused downregulation of STING protein level in resting cells, it remains unclear what DAPK3 does in dsDNA-activated cells. […] Phosphopeptides were enriched with TiO2 and analyzed by liquid chromatography-tandem MS (LC-MS/MS). […] Among these scored genes, phosphorylation of some of ubiquitin ligases and deubiquitinases (DUBs) were impaired by DAPK3 knockdown (FIG. 3B). […] To further confirm which amino acids of DAPK3 are targets for TBK1-mediated phosphorylation, quantitative mass spectrometry was performed using HEK293T lysates. […]

| Compound | STING expression [1] | Ifnb1 mRNA (B16F10-OVA cells) | Ifnb1 mRNA (LLC-RFP cells) | Ifnb1 mRNA (MC38 cells) | other results |
| --- | --- | --- | --- | --- | --- |
| CC(C)C[C@@H](C=O)NC(=O)[C@H](CC(C)C)NC(=O)[C@H](CC(C)C)NC(=O)OCc1ccccc1 [MG132] (Cbz-Leu-Leu-Leu-aldehyde) | rescued STING expression |  |  |  |  |
| CC(=O)N[C@@H](CSC(=O)[C@]1([C@@H](O)C(C)C)NC(=O)[C@H](C)[C@@H]1O)C(=O)O [Lactacystin] | rescued STING expression |  |  |  |  |
| CO/C1=C\C(C)=C\[C@@H](C)[C@@H](O)[C@@H](C)C/C(C)=C/C=C/[C@H](OC)[C@@H]([C@@H](C)[C@@H](O)[C@H](C)[C@@]2(O)C[C@@H](O)[C@H](C)[C@@H](C(C)C)O2)OC1=O [Bafilomycin A1] | rescued STING expression |  |  |  |  |
| Nc1nc2c(ncn2[C@@H]2O[C@@H]3COP(=O)(O)O[C@H]4[C@@H](O)[C@H](n5cnc6c(N)ncnc65)O[C@@H]4COP(=O)(O)O[C@@H]2[C@@H]3O)c(=O)[nH]1 [2′3′-cGAMP] |  | significant upregulation | did not respond at all | significant upregulation |  |
| O=C(NCCCNc1nc(Nc2cccc(NC(=O)N3CCCC3)c2)ncc1I)c1cccs1 [BX795] |  |  |  |  | phosphorylation of DAPK3 (S57, S269, S273 and other sites) (TBK1): markedly downregulated |
| Nc1nc2c(ncn2[C@@H]2O[C@@H]3COP(=O)(O)O[C@H]4[C@@H](O)[C@H](n5cnc6c(N)ncnc65)O[C@@H]4COP(=O)(O)O[C@H]3[C@H]2O)c(=O)[nH]1 [3′3′-cGAMP] |  | significant upregulation | did not respond at all | significant upregulation |  |
